Values after ≈ are worked out from the molar mass of the structure shown.
Assays:
Assay type in all cases: functional
[1] = system: Haemophilus influenzae; experiment: Minimum inhibitory concentration of compound against Ery-S Haemophilus influenzae ATCC 49247 was determined
[2] = system: Streptococcus pneumoniae; experiment: Minimum inhibitory concentration of compound against Ery-R Streptococcus pneumoniae 163 was determined
[3] = system: Streptococcus pneumoniae; experiment: Minimum inhibitory concentration of compound against Ery-R Streptococcus pneumoniae 303 was determined
[4] = system: Streptococcus pyogenes; experiment: Minimum inhibitory concentration of compound against Ery-R Streptococcus pyogenes 1850 was determined
[5] = system: Streptococcus pyogenes; experiment: Minimum inhibitory concentration of compound against Ery-R Streptococcus pyogenes 1721 was determined
[6] = system: Streptococcus pneumoniae; experiment: Minimum inhibitory concentration of compound against Ery-R Streptococcus pneumoniae 5032 was determined
[7] = system: Streptococcus pyogenes; experiment: Minimum inhibitory concentration of compound against Ery-R Streptococcus pyogenes 3262 was determined
[8] = system: Streptococcus pneumoniae; experiment: Minimum inhibitory concentration of compound against Ery-S Streptococcus pneumoniae 3773 was determined
[9] = system: Streptococcus pneumoniae; experiment: Minimum inhibitory concentration of compound against Ery-S Streptococcus pneumoniae ATCC 49619 was determined
[10] = system: Streptococcus pyogenes; experiment: Minimum inhibitory concentration of compound against Ery-R Streptococcus pyogenes 3029 was determined
[11] = system: Streptococcus pyogenes; experiment: Minimum inhibitory concentration of compound against Ery-R Streptococcus pyogenes ATCC 19615 was determined
[12] = system: Streptococcus pneumoniae; experiment: 1 Minimum inhibitory concentration of compound against Ery-R Streptococcus pneumoniae 163 was determined
[13] = system: Staphylococcus aureus; experiment: Minimum inhibitory concentration of compound against Ery-R Staphylococcus aureus 96:11480 was determined
[14] = system: Staphylococcus aureus; experiment: Minimum inhibitory concentration of compound against Ery-S Staphylococcus aureus ATCC 29213 was determined
[15] = system: Streptococcus pyogenes; experiment: Minimum inhibitory concentration of compound against Ery-S Streptococcus pyogenes ATCC 19615 was determined
[16] = system: Streptococcus pneumoniae; experiment: Minimum inhibitory concentration of compound against Streptococcus pneumoniae ATCC 49619 Ery-S was determined
[17] = system: Streptococcus pyogenes; experiment: Minimum inhibitory concentration of compound against Streptococcus pyogenes ATCC 19615 Ery-S was determined
[18] = system: Staphylococcus aureus; experiment: Minimum inhibitory concentration of compound against Ery-S Staphylococcus aureus ATCC 23029 was determined
[19] = system: Streptococcus pyogenes; experiment: Minimum inhibitory concentration of compound against Ery-R Streptococcus pyogenes 13029 was determined
[20] = system: Streptococcus pyogenes; experiment: Minimum inhibitory concentration of compound against Streptococcus pyogenes ATCC 13029 Ery-R was determined
[21] = system: Streptococcus pneumoniae; experiment: Minimum inhibitory concentration of compound against Streptococcus pneumoniae ATCC 49163 Ery-R was determined
[22] = system: Streptococcus pneumoniae; experiment: Minimum inhibitory concentration of compound against Streptococcus pneumoniae ATCC 49303 Ery-R was determined
[23] = system: Haemophilus influenzae; experiment: Minimum inhibitory concentration of compound against Haemophilus influenzae ATCC 49247 Ery-S was determined
[24] = system: Staphylococcus aureus; experiment: Minimum inhibitory concentration of compound against Staphylococcus aureus ATCC 96:11480 Ery-R was determined
[25] = system: Staphylococcus aureus; experiment: Minimum inhibitory concentration of compound against Staphylococcus aureus ATCC 23029 Ery-S was determined

CC[C@H]1OC(=O)[C@@](C)(F)C(=O)[C@H](C)[C@@H](O[C@@H]2O[C@H](COCc3ccccc3)C[C@H](N(C)C)[C@H]2O)[C@@](C)(OC)C[C@@H](C)C(=O)[C@H](C)[C@H]2N(CCCCn3cc(-c4cccc(N)c4)nn3)C(=O)O[C@]12C
MIC [1]: 4 µg/mL (≈ 4.21 µM)
MIC [2]: ≤ 0.125 µg/mL
MIC [3]: ≤ 0.125 µg/mL
MIC [4]: 0.25 µg/mL (≈ 0.263 µM)
MIC [5]: 8 µg/mL (≈ 8.41 µM)
MIC [6]: 0.25 µg/mL (≈ 0.263 µM)
MIC [7]: 0.5 µg/mL (≈ 0.526 µM)
MIC [8]: 4 µg/mL (≈ 4.21 µM)
MIC [9]: ≤ 0.125 µg/mL
MIC [10]: ≤ 0.125 µg/mL

CC[C@H]1OC(=O)[C@@](C)(F)C(=O)[C@H](C)[C@@H](O[C@@H]2O[C@H](CO)[C@@H](O)[C@H](N(C)C)[C@H]2O)[C@@](C)(OC)C[C@@H](C)C(=O)[C@H](C)[C@H]2N(CCCCn3cc(-c4cccc(N)c4)nn3)C(=O)O[C@]12C
MIC [1]: > 32 µg/mL
MIC [2]: ≤ 0.125 µg/mL
MIC [3]: ≤ 0.125 µg/mL
MIC [4]: > 32 µg/mL
MIC [11]: ≤ 0.125 µg/mL
MIC [5]: > 32 µg/mL
MIC [6]: > 32 µg/mL
MIC [7]: > 32 µg/mL
MIC [8]: > 32 µg/mL
MIC [9]: ≤ 0.125 µg/mL
MIC [10]: > 32 µg/mL

CC[C@H]1OC(=O)[C@H](C)C(=O)[C@H](C)[C@@H](O[C@@H]2O[C@H](CO)[C@@H](O)[C@H](N(C)C)[C@H]2O)[C@@](C)(OC)C[C@@H](C)C(=O)[C@H](C)[C@H]2N(CCCCn3cc(-c4ccccn4)nn3)C(=O)O[C@]12C
MIC [1]: 64 µg/mL (≈ 75.7 µM)
MIC [12]: 4 µg/mL (≈ 4.73 µM)
MIC [3]: ≤ 0.125 µg/mL
MIC [13]: 64 µg/mL (≈ 75.7 µM)
MIC [14]: 4 µg/mL (≈ 4.73 µM)
MIC [15]: ≤ 0.125 µg/mL
MIC [9]: ≤ 0.125 µg/mL
MIC [10]: > 64 µg/mL

CC[C@H]1OC(=O)[C@H](C)C(=O)[C@H](C)[C@@H](O[C@@H]2O[C@H](C)[C@@H](O)[C@H](O)[C@H]2O)[C@@](C)(OC)C[C@@H](C)C(=O)[C@H](C)[C@H]2N(CCCCn3cc(-c4ccccn4)nn3)C(=O)O[C@]12C
MIC [1]: > 64 µg/mL
MIC [16]: 4 µg/mL (≈ 4.99 µM)
MIC [2]: 2 µg/mL (≈ 2.49 µM)
MIC [3]: 16 µg/mL (≈ 20 µM)
MIC [13]: > 64 µg/mL
MIC [14]: > 64 µg/mL
MIC [17]: 8 µg/mL (≈ 9.98 µM)

CC[C@H]1OC(=O)[C@H](C)C(=O)[C@H](C)[C@@H](O[C@@H]2O[C@H](C)C[C@H](N(C)C)[C@H]2O)[C@@](C)(OC)C[C@@H](C)C(=O)[C@H](C)[C@H]2N(CCCCn3cc(-c4ccccn4)nn3)C(=O)O[C@]12C
MIC [1]: 4 µg/mL (≈ 4.92 µM)
MIC [2]: ≤ 0.125 µg/mL
MIC [3]: ≤ 0.125 µg/mL
MIC [13]: 0.125 µg/mL (≈ 0.154 µM)
MIC [14]: ≤ 0.125 µg/mL
MIC [15]: ≤ 0.125 µg/mL
MIC [9]: ≤ 0.125 µg/mL
MIC [10]: > 64 µg/mL

CC[C@H]1OC(=O)[C@H](C)C(=O)[C@H](C)[C@@H](O[C@@H]2OC[C@@H](O)[C@H](N(C)C)[C@H]2O)[C@@](C)(OC)C[C@@H](C)C(=O)[C@H](C)[C@H]2N(CCCCn3cc(-c4ccccn4)nn3)C(=O)O[C@]12C
MIC [1]: > 64 µg/mL
MIC [2]: 2 µg/mL (≈ 2.45 µM)
MIC [3]: 16 µg/mL (≈ 19.6 µM)
MIC [13]: 4 µg/mL (≈ 4.91 µM)
MIC [14]: 4 µg/mL (≈ 4.91 µM)
MIC [15]: ≤ 0.125 µg/mL
MIC [9]: 4 µg/mL (≈ 4.91 µM)

CC[C@H]1OC(=O)[C@H](C)[C@@H](O[C@H]2C[C@@](C)(OC)[C@@H](O)[C@H](C)O2)[C@H](C)[C@@H](O[C@@H]2O[C@H](C)C[C@H](N(C)C)[C@H]2O)[C@](C)(O)C[C@@H](C)CN(C)[C@H](C)[C@@H](O)[C@]1(C)O [AZITHROMYCIN]
MIC [1]: 4 µg/mL (≈ 5.34 µM)
MIC [2]: 8 µg/mL (≈ 10.7 µM)
MIC [3]: > 64 µg/mL
MIC [4]: > 64 µg/mL
MIC [13]: ≥ 64 µg/mL
MIC [5]: > 64 µg/mL
MIC [6]: > 64 µg/mL
MIC [7]: > 64 µg/mL
MIC [8]: > 64 µg/mL
MIC [15]: ≤ 0.125 µg/mL
MIC [18]: 1 µg/mL (≈ 1.34 µM)
MIC [19]: > 64 µg/mL
MIC [9]: ≤ 0.125 µg/mL

CC[C@H]1OC(=O)[C@H](C)C(=O)[C@H](C)[C@@H](O[C@@H]2O[C@H](C)[C@@H](O)[C@H](N(C)C)[C@H]2O)[C@@](C)(OC)C[C@@H](C)C(=O)[C@H](C)[C@H]2N(CCCCn3cc(-c4ccccn4)nn3)C(=O)O[C@]12C
MIC [1]: 16 µg/mL (≈ 19.3 µM)
MIC [2]: 0.5 µg/mL (≈ 0.603 µM)
MIC [3]: 16 µg/mL (≈ 19.3 µM)
MIC [13]: 0.25 µg/mL (≈ 0.302 µM)
MIC [14]: ≤ 0.125 µg/mL
MIC [15]: ≤ 0.125 µg/mL
MIC [9]: ≤ 0.125 µg/mL
MIC [10]: > 64 µg/mL

CC[C@H]1OC(=O)[C@H](C)C(=O)[C@H](C)[C@@H](O[C@@H]2O[C@H](COCc3ccccc3)C[C@H](N(C)C)[C@H]2O)[C@@](C)(OC)C[C@@H](C)C(=O)[C@H](C)[C@H]2N(CCCCn3cc(-c4ccccn4)nn3)C(=O)O[C@]12C
MIC [20]: 0.5 µg/mL (≈ 0.544 µM)
MIC [16]: ≤ 0.125 µg/mL
MIC [21]: ≤ 0.125 µg/mL
MIC [22]: ≤ 0.125 µg/mL
MIC [23]: 64 µg/mL (≈ 69.6 µM)

CC[C@H]1OC(=O)[C@H](C)C(=O)[C@H](C)[C@@H](O[C@@H]2O[C@H](C)C[C@H](N(C)C)[C@H]2O)[C@](C)(OC)C[C@@H](C)C(=O)[C@H](C)[C@H]2N(CCCCn3cnc(-c4cccnc4)c3)C(=O)O[C@]12C [TELITHROMYCIN]
MIC [1]: 4 µg/mL (≈ 4.93 µM)
MIC [16]: ≤ 0.125 µg/mL
MIC [2]: ≤ 0.125 µg/mL
MIC [3]: ≤ 0.125 µg/mL
MIC [4]: 8 µg/mL (≈ 9.85 µM)
MIC [13]: ≤ 0.125 µg/mL
MIC [5]: 64 µg/mL (≈ 78.8 µM)
MIC [6]: 0.5 µg/mL (≈ 0.616 µM)
MIC [7]: 32 µg/mL (≈ 39.4 µM)
MIC [14]: ≤ 0.125 µg/mL
MIC [8]: 1 µg/mL (≈ 1.23 µM)
MIC [15]: ≤ 0.125 µg/mL
MIC [10]: 16 µg/mL (≈ 19.7 µM)

CC[C@H]1OC(=O)[C@@](C)(F)C(=O)[C@H](C)[C@@H](O[C@@H]2O[C@H](COCc3ccccc3)[C@@H](O)[C@H](N(C)C)[C@H]2O)[C@@](C)(OC)C[C@@H](C)C(=O)[C@H](C)[C@H]2N(CCCCn3cc(-c4cccc(N)c4)nn3)C(=O)O[C@]12C
MIC [1]: 4 µg/mL (≈ 4.14 µM)
MIC [2]: ≤ 0.125 µg/mL
MIC [3]: ≤ 0.125 µg/mL
MIC [4]: 0.25 µg/mL (≈ 0.258 µM)
MIC [11]: ≤ 0.125 µg/mL
MIC [5]: 8 µg/mL (≈ 8.27 µM)
MIC [6]: 4 µg/mL (≈ 4.14 µM)
MIC [7]: 4 µg/mL (≈ 4.14 µM)
MIC [8]: 8 µg/mL (≈ 8.27 µM)
MIC [9]: ≤ 0.125 µg/mL
MIC [10]: 0.5 µg/mL (≈ 0.517 µM)

CC[C@H]1OC(=O)[C@H](C)C(=O)[C@H](C)[C@@H](O[C@@H]2O[C@H](COCc3ccccc3)[C@@H](O)[C@H](N(C)C)[C@H]2O)[C@@](C)(OC)C[C@@H](C)C(=O)[C@H](C)[C@H]2N(CCCCn3cc(-c4ccccn4)nn3)C(=O)O[C@]12C
MIC [20]: 2 µg/mL (≈ 2.14 µM)
MIC [16]: ≤ 0.125 µg/mL
MIC [24]: ≤ 0.125 µg/mL
MIC [21]: ≤ 0.125 µg/mL
MIC [22]: ≤ 0.125 µg/mL
MIC [25]: ≤ 0.125 µg/mL
MIC [17]: ≤ 0.125 µg/mL
MIC [23]: 64 µg/mL (≈ 68.4 µM)

Source: ChEMBL document CHEMBL1141993, “Synthesis and biological activity of new 5-O-sugar modified ketolide and 2-fluoro-ketolide antibiotics” (2005)
